In patent publication US7071344B1, “Vitamin D derivatives with cyclopropyl rings in the lateral chains, a method and intermediate products for the production thereof and the utilization thereof for producing medicaments” (Schering AG, priority 1997, dated 2006):

Legend:
[1] = system: HL 60 cells; experiment: differentiation induction of HL 60 cells to macrophages (NBT reduction); assay type: cell-based, human; details: dose ratio test substance/calcitriol for comparable semi-maximum differentiation induction; 96 hours incubation
Procedure: The differentiation-stimulating action of calcitriol analogues is also detected quantitatively.
It is known in the literature [Mangelsdorf, D. J. et al., J. Cell. Biol. 98: 391 (1984)] that the treatment of human leukemia cells (promyelocyte cell line HL 60) in vitro with calcitriol induces the differentiation of cells to macrophages.
HL 60 cells are cultivated in tissue culture medium (RPMI 10% fetal calf serum) at 37° C. in an atmosphere of 5% CO2 in air.
For substance testing, the cells are centrifuged off, and 2.0×10^5 cells/ml in phenol red-free tissue culture medium is taken up. The test substances are dissolved in ethanol and diluted with tissue culture medium without phenol red to the desired concentration. The dilution stages are mixed with the cell suspension at a ratio of 1:10, and 100 μl each of this cell suspension that is mixed with substance is pipetted into an indentation of a 96-hole plate. For control, a cell suspension is mixed analogously with the solvent.
After incubation for 96 hours at 37° C. in 5% CO2 in air, 100 μl of an NBT-TPA solution (nitro blue tetrazolium (NBT), final concentration in the batch of 1 mg/ml, tetradecanoyl phorbolmyristate-13-acetate (TPA), final concentration in the batch of 2×10^−7 mol/l) is pipetted into each indentation of the 96-hole plate in the cell suspension.
By incubation for 2 hours at 37° C. and 5% CO2 in air, NBT is reduced to insoluble formazan because of the intracellular oxygen radical release, stimulated by TPA, in the cells that are differentiated to macrophages.
To complete the reaction, the indentations of the 96-hole plate are suctioned off, and the cells are affixed to the bottom of the plate by adding methanol and dried after affixing. To dissolve the intracellular formazan crystals that are formed, 100 μl of potassium hydroxide (2 mol/l) and 100 μl of dimethyl sulfoxide are pipetted into each indentation and ultrasonically treated for 1 minute. The concentration of formazan is measured by spectrophotometry at 650 nm.
As a yardstick for the differentiation induction of HL 60 cells to macrophages, the concentration of formed formazan applies.

[2] = acute hypercalcemic action (serum-calcium) in rats; assay type: in vivo, rat; details: dose ratio test substance/calcitriol for comparable hypercalcemic action; one-time subcutaneous administration, male rats
Procedure: To determine the acute hypercalcemic action of various calcitriol derivatives, the test that is described below is carried out:
The action of control (solution base), reference substance (1,25-dihydroxy vitamin D3=calcitriol) and test substance is tested in each case after one-time subcutaneous administration in groups of 10 healthy male rats (140–170 g). During the testing time, the rats are kept in special cages to determine the excretion of water and mineral substances. Urine is collected in 2 fractions (0–16 hours and 16–22 hours). An oral dose of calcium (0.1 mmol of calcium in 6.5% alpha-hydroxypropylcellulose, 5 ml/animal) replaces at 1600 hours the calcium intake that is lacking by food deprivation. At the end of the test, the animals are killed by decapitation and exsanguinated to determine the serum-calcium values. For the primary screen test in vivo, an individual standard dose (200 μg/kg) is tested. For selected substances, the result is supported by establishing a dose-effect relation.
A hypercalcemic action is shown in serum-calcium level values that are higher than in the control.
The significance of differences between substance groups and controls and between test substance and reference substance are supported with suitable statistical processes.

[3] = metabolic stability in liver homogenate; assay type: in vitro ADME; details: half-life in the liver homogenate (rat)
Procedure: To determine the metabolic stability, the test substance is incubated with tissue homogenate (from the rat liver) in the presence of buffer systems. The drop in starting concentration is tracked as a function of time. After a certain time, the incubation is stopped, and the unaltered test substance is extracted from the homogenate (diethyl ether), concentrated by evaporation under nitrogen, isolated via HPLC (mobile solvent: acetonitrile/water) and detected using UV-absorption.

[4] = biological target: T1, calcitriol receptor (Sus scrofa, UniProt A3RGC1); experiment: calcitriol-receptor test (competition with 3H-calcitriol); details: competition factor = concentration of test substance / concentration of calcitriol at 50% competition; protein extract from intestines of juvenile pigs
T1 sequence (A3RGC1 1-427): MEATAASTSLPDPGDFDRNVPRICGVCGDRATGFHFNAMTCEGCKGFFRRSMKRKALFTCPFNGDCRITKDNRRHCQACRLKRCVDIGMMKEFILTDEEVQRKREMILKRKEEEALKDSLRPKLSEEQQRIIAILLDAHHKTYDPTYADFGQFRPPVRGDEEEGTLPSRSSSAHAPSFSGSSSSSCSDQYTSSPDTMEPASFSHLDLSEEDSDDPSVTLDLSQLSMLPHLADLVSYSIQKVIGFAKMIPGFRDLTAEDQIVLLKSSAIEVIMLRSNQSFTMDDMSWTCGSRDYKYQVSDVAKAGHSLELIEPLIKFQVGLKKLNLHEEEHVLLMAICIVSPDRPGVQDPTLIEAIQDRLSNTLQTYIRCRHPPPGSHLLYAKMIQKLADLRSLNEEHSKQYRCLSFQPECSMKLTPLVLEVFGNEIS
Procedure: The vitamin D activity of the substances according to the invention is determined with the aid of the calcitriol-receptor test. It is carried out using a protein extract from the intestines of juvenile pigs.
Then, the samples are centrifuged at 10,000 g for 5 minutes at 4° C. The supernatant is decanted and measured in a β-counter after 1 hour of equilibration in Picofluor 15™.
The competition curves that are obtained at various concentrations of test substance as well as of reference substance (unlabeled calcitriol) at constant concentration of the reference substance (^3H-calcitriol) are placed in relation to one another, and a competition factor (KF) is determined.
It is defined as a quotient of the concentrations of the respective test substance and the reference substance, which are necessary for 50% competition:

Compound	DR Ca [2]	T½ [3] [h]	KF [4]	DR HL 60 [1]	half-life ([3]; read-out: T½) [h]
C=C1/C(=C\C=C2/CCC[C@]3(C)[C@@H]([C@H](C)/C=C/CC4(C(C)=O)CC4)CC[C@@H]23)C[C@@H](O)C[C@@H]1O [Compound 66, (5Z,7E,22E)-(1S,3R)-25-Acetyl-26,27-cyclo-9,10-secocholesta-5,7,10(19),22-tetraene-1,3-diol]	30	1.83	10	0.5	–
C=C1C(=CC=C2CCCC3(C)C2CCC3C(C)C(O)CCCC2(C(=O)CCC)CC2)CC(O)CC1O [Compound 132, (5Z,7E)-(1S,3R,22S)-25-(1-Oxobutyl)-26,27-cyclo-24a-homo-9,10-secocholesta-5,7,10(19)-triene-1,3,22-triol]	>100	1.67	20	2	–
C=C1/C(=C\C=C2/CCC[C@]3(C)[C@@H]([C@H](C)/C=C/CCC4(C(C)=O)CC4)CC[C@@H]23)C[C@@H](O)C[C@@H]1O [Compound 126, (5Z,7E,22E)-(1S,3R)-25-Acetyl-26,27-cyclo-24a-homo-9,10-secocholesta-5,7,10(19),22-tetraene-1,3-diol]	20	2	5	0.5	–
C=C1/C(=C\C=C2/CCC[C@]3(C)[C@@H]([C@H](C)/C=C/[C@@H](O)C4(CC)CC4)CC[C@@H]23)C[C@@H](O)C[C@@H]1O [Compound 214b, (5Z,7E,22E)-(1S,3R,24R)-25-ethyl-26,27-cyclo-9,10-secocholesta-5,7,10(19),22-tetraene-1,3,24-triol]	>1	1.67	1	0.1	–
C=C1C(=CC=C2CCCC3(C)C2CCC3C(C)C=CCC2(C(=O)CCCCC)CC2)CC(O)CC1O [Compound 81, (5Z,7E,22E)-(1S,3R)-25-(1-Oxohexyl)-26,27-cyclo-9,10-secocholesta-5,7,10(19),22-tetraene-1,3-diol]	>>300	>2	40	9	–
C=C1C(=CC=C2CCCC3(C)C2CCC3C(C)C=CCCC2(C(=O)CCCC)CC2)CC(O)CC1O [Compound 136, (5Z,7E,22E)-(1S,3R)-25-(1-Oxopentyl)-26,27-cyclo-24a-homo-9,10-secocholesta-5,7,10(19),22-tetraene-1,3-diol]	>100	>2	10	17	–
C=C1/C(=C\C=C2/CCC[C@]3(C)[C@@H]([C@H](C)[C@@H](O)CCCC4(C(C)=O)CC4)CC[C@@H]23)C[C@@H](O)C[C@@H]1O [Compound 127, (5Z,7E)-(1S,3R,22S)-25-Acetyl-26,27-cyclo-24a-homo-9,10-secocholesta-5,7,10(19)-triene-1,3,22-triol]	>100	2	30	4	–
C=C1/C(=C\C=C2/CCC[C@]3(C)[C@@H]([C@H](C)/C=C/[C@@H](O)CCC4(C(C)=O)CC4)CC[C@@H]23)C[C@@H](O)C[C@@H]1O [Compound 168b, (5Z,7E,22E)-(1S,3R,24S)-25-acetyl-26,27-cyclo-24a,24b-dihomo-9,10-secocholesta-5,7,10(19),22-tetraene-1,3,24-triol]	>100	2	3	7	–
C=C1/C(=C\C=C2/CCC[C@]3(C)[C@@H]([C@H](C)CCCC(C)(C)O)CC[C@@H]23)C[C@@H](O)C[C@@H]1O [calcitriol, 1α,25-dihydroxy vitamin D3, reference compound]	1	–	–	1	2
C=C1/C(=C\C=C2/CCC[C@]3(C)[C@@H]([C@H](C)/C=C/CC4(C(=O)CCCC)CC4)CC[C@@H]23)C[C@@H](O)C[C@@H]1O [Compound 76, (5Z,7E,22E)-(1S,3R)-25-(1-Oxopentyl)-26,27-cyclo-9,10-secocholesta-5,7,10(19),22-tetraene-1,3-diol]	>100	>2	7	19	–
C=C1/C(=C\C=C2/CCC[C@]3(C)[C@@H]([C@H](C)/C=C/[C@@H](O)C4(/C=C/CC)CC4)CC[C@@H]23)C[C@@H](O)C[C@@H]1O [Compound 221b, [5Z,7E,22E,25(E)]-(1S,3R,24R)-25-(1-butenyl)-26,27-cyclo-9,10-secocholesta-5,7,10(19),22-tetraene-1,3,24-triol]	10	1.5	2	0.1	–

Continued, in another order:

DR Ca [2]	T½ [3] [h]	KF [4]	Compound	DR HL 60 [1]	half-life ([3]; read-out: T½) [h]
>100	1.25	9	C=C1/C(=C\C=C2/CCC[C@]3(C)[C@@H]([C@H](C)/C=C/[C@@H](O)C4(CCCCCC)CC4)CC[C@@H]23)C[C@@H](O)C[C@@H]1O [Compound 231b, (5Z,7E,22E)-(1S,3R,24R)-25-hexyl-26,27-cyclo-9,10-secocholesta-5,7,10(19),22-tetraene-1,3,24-triol]	2	–
>>10	1.67	10	[5Z,7E,22E,25(Z)]-(1S,3R,24S)-25-(1-octenyl)-26,27-cyclo-9,10-secocholesta-5,7,10(19),22-tetraene-1,3,24-triol [Compound 246b]	2	–
>>1	1.33	4	C=C1/C(=C\C=C2/CCC[C@]3(C)[C@@H]([C@H](C)/C=C/[C@H](O)C4(CCCC)CC4)CC[C@@H]23)C[C@@H](O)C[C@@H]1O [Compound 226a, (5Z,7E,22E)-(1S,3R,24S)-25-Butyl-26,27-cyclo-9,10-secocholesta-5,7,10(19),22-tetraene-1,3,24-triol]	2	–
>5	1.67	3	C=C1C(=CC=C2CCCC3(C)C2CCC3C(C)C=CC(O)C2(CCCC)CC2)CC(O)CC1O [Compound 226b, (5Z,7E,22E)-(1S,3R,24R)-25-butyl-26,27-cyclo-9,10-secocholesta-5,7,10(19),22-tetraene-1,3,24-triol]	0.4	–
